According to patent publication US20240285613A1, “TREATMENT FOR AUTOIMMUNE DISEASES” (LDN Pharma Limited, priority 2021, published 2024):

Tests used:
Type in all cases: cell-based, human
Details in all cases: 4 h
[1] = tested on: 5-HT receptor 4, transcript variant a, mRNA; assay: Microarray gene expression in CD3+ lymphocytes, probe ILMN_1676350 (HTR4)
Experimental: (§1) CD3+ lymphocytes were isolated from the blood of haematologically normal volunteers. Cells placed into 25 cm^3 flasks at a concentration of 1×10^6/ml, and left to equilibrate in an incubator with a humidified atmosphere and 5% CO2 in air at 37° C. […] RNA extraction was performed using Trizol according to standard procedures, before being processed for microarray analysis according to the standard methodologies. Briefly, equal amounts of biotinylated cRNA was hybridised to the Illumina human HT 12-v3 arrays for 18 h and subsequently processed according to manufacturer's instructions before scanning on an Illumina BeadArray Reader. The image data were processed using default values in GenomeStudio v2009.1 with imputation of missing data, before loading onto GeneSpring v9.0 for data normalisation and filtering. Data analyses were performed using Excel software, and the ratio of gene expression signals in treated vs. untreated calculated.

[2] = tested on: 5-HT receptor 3A, transcript variant 2, mRNA; assay: Microarray gene expression in CD3+ lymphocytes, probe ILMN_2371079 (HTR3A)
Experimental: as §1

[3] = tested on: 5-HT receptor 3A, transcript variant 1, mRNA; assay: Microarray gene expression in CD3+ lymphocytes, probe ILMN_1681492 (HTR3A)
Experimental: as §1

[4] = tested on: 5-HT receptor 3A, transcript variant 2, mRNA; assay: Microarray gene expression in CD3+ lymphocytes, probe ILMN_1662070 (HTR3A)
Experimental: as §1

5-HT receptor 2C, mRNA = assay: Microarray gene expression in CD3+ lymphocytes, probe ILMN_1801357 (HTR2C)
Experimental: as §1

5-HT receptor 1E, mRNA = assay: Microarray gene expression in CD3+ lymphocytes, probe ILMN_1794095 (HTR1E)
Experimental: as §1

[5] = tested on: 5-HT receptor 4, transcript variant hb, mRNA; assay: Microarray gene expression in CD3+ lymphocytes, probe ILMN_1808258 (HTR4)
Experimental: as §1

5-HT receptor 2B, mRNA = assay: Microarray gene expression in CD3+ lymphocytes, probe ILMN_1735764 (HTR2B)
Experimental: as §1

[6] = tested on: mRNA for one or more of 5-HT receptor proteins; assay: Microarray gene expression in CD3+ lymphocytes, summary over 5-HT receptors
Experimental: as §1

[7] = tested on: 5-HT receptor 7 (adenylate cyclase-coupled), transcript variant a, mRNA; assay: Microarray gene expression in CD3+ lymphocytes, probe ILMN_1744217 (HTR7)
Experimental: as §1

## O=C1CC[C@@]2(O)[C@H]3Cc4ccc(O)c5c4[C@@]2(CCN3CC2CC2)[C@H]1O5 [NTX, 17-cyclopropylmethyl-4.5-epoxy-3,14-dihydroxymorphinan-6-one]
[1]; LDN 10 nM
  gene expression signal, HTR4 transcript variant a: 100.20
[1]; NTX 10 uM
  gene expression signal, HTR4 transcript variant a: 96.10
[2]; LDN 10 nM
  gene expression signal, HTR3A transcript variant 2: 124.70
[2]; NTX 10 uM
  gene expression signal, HTR3A transcript variant 2: 151.75
[3]; LDN 10 nM
  gene expression signal, HTR3A transcript variant 1: 94.00
[3]; NTX 10 uM
  gene expression signal, HTR3A transcript variant 1: 86.75
[4]; LDN 10 nM
  gene expression signal, HTR3A transcript variant 2: 82.35
[4]; NTX 10 uM
  gene expression signal, HTR3A transcript variant 2: 80.60
5-HT receptor 2C, mRNA; LDN 10 nM
  gene expression signal, HTR2C: 85.50
5-HT receptor 2C, mRNA; NTX 10 uM
  gene expression signal, HTR2C: 89.50
5-HT receptor 1E, mRNA; LDN 10 nM
  gene expression signal, HTR1E: 101.20
5-HT receptor 1E, mRNA; NTX 10 uM
  gene expression signal, HTR1E: 95.70
[5]; LDN 10 nM
  gene expression signal, HTR4 transcript variant hb: 93.50
[5]; NTX 10 uM
  gene expression signal, HTR4 transcript variant hb: 88.20
5-HT receptor 2B, mRNA; LDN 10 nM
  gene expression signal, HTR2B: 147.45
5-HT receptor 2B, mRNA; NTX 10 uM
  gene expression signal, HTR2B: 177.95
[6]; higher dose naltrexone (10 uM)
  levels of mRNA for one or more of 5-HT receptor proteins: increase the levels of mRNA
[6]; low dose naltrexone (10 nM)
  levels of mRNA for one or more of 5-HT receptor proteins: increase the levels of mRNA
[7]; LDN 10 nM
  gene expression signal, HTR7 transcript variant a: 80.00
[7]; NTX 10 uM
  gene expression signal, HTR7 transcript variant a: 86.60
